Entries after “also recorded” stand apart in the source; their conditions may differ.
Assays:
[1] = test system: Ser137 of DARPP-32 (CK1 site); test: DARPP-32 phospho-Ser137 immunoblot in neostriatal slices; assay type: cell-based, mouse; conditions: for effect on basal phosphorylation of Ser137 / effect of pretreatment on the DHPG effect on Ser137 phosphorylation: U73122 10 μM 30 min, BAPTA/AM 20 μM; for effect of pretreatment on the DHPG effect on Ser137 phosphorylation: before DHPG 100 μM 2 min, L-AP3 100 μM 20 min, ZM241385 100 μM, cyclosporin A 5 μM 1 h
Method: (§1) Neostriatal slices were prepared from male C57/BL6 mice (6–8 weeks old) in accordance with methods known in the art (Nishi, A. et al. 1997, J. Neurosci. 17:8147–8155). Slices were treated with a drug. After drug treatment, slices were immediately frozen in liquid nitrogen, and stored at −80° C. until assayed.
(§2) Frozen slices were sonicated in hot homogenization buffer containing 1% SDS and 50 mM NaF, and samples were boiled for 10 minutes. SDS-PAGE sample buffer was then added and samples were boiled for 5 minutes. Samples (approximately 120 μg of total protein) were separated by SDS-PAGE (10% polyacrylamide) and then transferred to nitrocellulose. In most studies, immunoblots were first probed with anti-phospho-Ser137 DARPP-32 antibody. The blots were then stripped and probed with anti-phospho-Thr75 DARPP-32 antibody. Blots were stripped again and probed with anti-total DARPP-32 antibody. […] Chemiluminescence was detected by autoradiography and bands were quantified by analysis of scanned images using NIH IMAGE 1.52 software. Data were statistically analyzed by Student's t test in Microsoft EXCEL™ software as indicated.
(§3) Neostriatal slices were prepared from male C57/BL6 mice (6–8 weeks old) as disclosed (22). Slices were treated with drugs as specified in the text and figure legends. After drug treatment, slices were immediately frozen in liquid nitrogen, and stored at −80° C. until assayed.
(§4) Frozen slices were sonicated in hot homogenization buffer containing 1% SDS and 50 mM NaF, and samples were boiled for 10 min. SDS-PAGE sample buffer was then added and samples were boiled for 5 min. Samples (approximately 120 μg protein) were separated by SDS-PAGE (10% polyacrylamide) and transferred to nitrocellulose. Immunoblots were first probed with antiphospho-Ser-137 DARPP-32 antibody. The blots were stripped and probed with anti-phosphoThr-75 DARPP-32 antibody. Blots were stripped again and probed with anti-total DARPP-32 antibody. Antibody binding was detected by enhanced chemiluminescence (ECL) using X-ray film, and images were analyzed by laser scanning densitometry using NIH Image 1.52 software. Data were statistically analyzed by Student's t-test using Microsoft EXCEL™ software as indicated.

[2] = test system: Thr75 of DARPP-32 (Cdk5 site); test: DARPP-32 phospho-Thr75 immunoblot in neostriatal slices; assay type: cell-based, mouse; conditions: for effect on basal phosphorylation of Thr75 / effect of pretreatment on the DHPG effect on Thr75 phosphorylation: U73122 10 μM 30 min, BAPTA/AM 20 μM; for effect of pretreatment on the DHPG effect on Thr75 phosphorylation: before DHPG 100 μM 2 min, L-AP3 100 μM 20 min, ZM241385 100 μM, cyclosporin A 5 μM 1 h
Method: as §1, §2, §3, §4

[3] = test system: voltage-dependent Ca2+ channels; test: whole-cell recordings of voltage-dependent Ca2+ channels in dissociated neostriatal neurons; assay type: cell-based, mouse; conditions: CK1–7 100 μM, butyrolactone 25 μM (FIG. 6)
Method: Neostriatal neurons from 3- to 4-week-old mice were acutely dissociated by using procedures similar to those disclosed in Eberwine et al. (1995, Prog. Brain Res. 105:117–126). Whole-cell current recordings used standard voltage-clamp techniques. The internal solution consisted of 180 mM N-methyl-D-glucamine, 40 mM Hepes, 4 mM MgCl2, 0.5 mM 1,2-bis(2-aminophenoxy)ethane-N,N,N′,N′-tetraacetate, 12 mM phosphocreatine, 2 mM Na2ATP, 0.2 mM Na3GTP, 0.1 mM leupeptin (pH 7.2–7.3), 265–270 mosm/liter. The external solution consisted of 135 mM NaCl, 20 mM CsCl, 1 mM MgCl2, 10 mM Hepes, 0.001 mM tetrodotoxin, 5 mM BaCl2, 10 mM glucose (pH 7.3), 300–305 mosm/liter. Recordings were obtained with an Axon Instruments 200B patch clamp amplifier that was controlled and monitored with an IBM PC running PCLAMP™ (v. 8) with a DigiData 1320 series interface (Axon Instruments, Foster City, Calif.). Electrode resistances were typically 2–4 MΩ in the bath. After seal rupture, series resistance (4–10 MΩ) was compensated (70–90%) and periodically monitored. Drugs were applied with a gravity-fed “sewer pipe” system. The array of application capillaries was positioned 250 μm from the cell under study. Solution changes were effected by altering the position of the array with a DC drive system controlled by a microprocessor-based controller (Newport-Klinger, Irvine, Calif.). Data analyses were performed with AXOGRAPH™ (Axon Instruments), […]™ (Albeck Software, Reading, Pa.), and […]™ (Abacus Concepts, Berkeley, Calif.).

ER = conditions: read-out: IC50, competition with fluorescein-labeled estradiol for binding to ER; FP-based assay; cited from earlier work
HA-tagged CK1ε = test: kinase activity of HA-CK1ε immunoprecipitated from transfected N2a cells, DARPP-32 as substrate; assay type: cell-based; conditions: 30 min before DHPG 100 μM 2 min, CKI-7 100 μM, L-AP3 100 μM, U73122 10 μM, BAPTA/AM 20 μM, cyclosporin A 1 μM
Method: Neuroblastoma N2a cells were cultured in DMEM containing 5% fetal bovine serum (FBS) to 50–60% confluency. Four micrograms of the expression plasmid for HA-CK1ε were transfected into N2a cells in 100 mm dishes using FuGENE™ 6. Twenty-four hours after transfection, cells were incubated in phosphate-buffered Krebs-Henseleit solution (Sigma) for 10 minutes at room temperature. Cells were then incubated with or without CKI inhibitor for 30 minutes before treating with the group I mGluR agonist (S)-3,5-DHPG (100 μM) for 2 minutes. Cells were then lysed in one ml of lysis buffer containing 1% Nonidet P-40 (NP-40), 150 mM NaCl, 0.1% SDS, 50 mM Tris (pH 8.0), 5 mM Na3VO4, 20 mM NaF, 20 mM β-glycerol-phosphate and protease inhibitors. Lysates were centrifuged at 10,000 g and supernatants were used for immunoprecipitation and kinase assay.
For immunoprecipitation of CKI from N2a cells, lysates (1 mg of total protein) were pre-cleared with 5 μl of mouse IgG and 50 μl of protein A agarose for 30 minutes. Five μl of anti-HA antibody were added and samples were incubated for 1 hour at 4° C. Five μl of anti-mouse rabbit IgG and 50 μl of protein A agarose were then added for 45 minutes. Immuno-complexes were washed three times in lysis buffer, two times in kinase buffer (30 mM Hepes (pH 7.5), 7 mM MgCl2, 0.5 mM DTT). CKI assays were performed in a 30 μl assay volume with 2 μg of purified DARPP-32, 500 μM ATP and 5 μCi γ-^32P-ATP. Samples were incubated at 30° C. for 20 minutes, reactions were stopped by addition of SDS-sample buffer, and samples were boiled for 5 minutes. Samples were separated by SDS-PAGE (12% polyacrylamide). SDS-PAGE gels were dried and exposed to Kodak film for autoradiography. Bands were quantified by analysis using a Molecular Dynamics PhosphorImager.
Neuroblastoma N2a cells were cultured to 50–60% confluence in DMEM containing 5% fetal bovine serum. Four μg of the expression plasmid for HA-CK1ε or myc-MM2-CK1ε was transfected into N2a cells in 100 mm dishes using FuGENE6™. Twenty-four hours after transfection, cells were incubated at room temperature in phosphate-buffered Kreb's-Henseleit solution (Sigma) for 10 min and then with or without inhibitors for 30 min before treating with (S)-3,5-DHPG, for 2 min. Cells were then lysed in 1 ml of radio-immunoprecipitation (RIPA) buffer containing 1% NP-40, 150 mM NaCl, 0.1% SDS, 50 mM Tris, pH 8.0, 5 mM Na3VO4, 20 mM NaF, 20 mM β-glycerol-phosphate and protease inhibitors. Lysates were centrifuged at 10,000 g, and supernatants were used for immunoprecipitation and kinase assay.
For immunoprecipitation of CK1ε from N2a cells, lysates (1 mg of total protein) were precleared with 5 μl of mouse IgG (ICN) and 50 μl of protein A agarose for 30 min. Five μl (approximately 2 μg) of anti-HA or anti-myc antibody was added and samples were incubated for 1 h at 4° C. Five μl of anti-mouse rabbit IgG and 50 μl of protein A agarose were then added for 45 min. Immuno-complexes were washed 3 times in lysis buffer and 2 times in kinase buffer (30 mM Hepes, pH 7.5, 7 mM MgCl2, 0.5 mM DTT).
(§5) CK1 assays were performed in a 30 μl assay volume with 2 μg of purified DARPP-32, 500 μM ATP and 5 μCi γ-^32P-ATP. Reactions were started by addition of the ATP. Samples were incubated at 30° C. for 10 min and reactions were stopped by addition of SDS-sample buffer and boiled for 5 min. Samples were separated by SDS-PAGE (12% polyacrylamide). SDS-PAGE gels were dried and exposed to Kodak film for autoradiography. Results were quantified using a Molecular Dynamics PHOSPHORIMAGER™. Immunoprecipitation and assay of Cdk5 were performed as disclosed (20).

Cdk5 = Cdk5 kinase activity immunoprecipitated from neostriatal slices, histone H-1 as substrate; assay type: cell-based, mouse; conditions: for effect of pretreatment on the effect of DHPG on Cdk5 kinase activity: CKI-7 dose-dependent, U73122 10 μM, BAPTA/AM 20 μM, cyclosporin A 5 μM
Method: as §1
For Cdk5 immunoprecipitation, striatal tissue slices (approximately 150 μg total protein) were lysed using a Dounce homogenizer and 1 ml of lysis buffer (150 mM NaCl, 20 mM Tris-HCl (pH 7.4), 1 mM EDTA, 0.5% NP-40, 5 mM NaF, 5 mM Na3PO4 and protease inhibitors). Lysates were centrifuged at 10,000 g for 10 minutes at 4° C. Supernatants were pre-cleared by adding rabbit IgG-conjugated agarose for 40 minutes at 4° C. Ten μl of Cdk5 antibody conjugated to agarose were added and samples were incubated for 1 hour at 4° C. with mixing. Agarose pellets were collected and washed three times with 1 ml of lysis buffer and two times with kinase assay buffer (50 mM Hepes (pH 7.5), 10 mM MgCl2, 1 mM DTT). Cdk5 kinase assays were performed in a 30-μl reaction mixtures with 2 μg Histone H-1, 500 μM ATP and 5 μCi of γ-^32P-ATP. Samples were incubated at 30° C. for 10 minutes, reactions were stopped by addition of SDS-sample buffer, and samples were boiled for 5 minutes. Samples were separated by SDS-PAGE and analyzed as disclosed above for CKI assays. Data were analyzed by Student's t-test in Microsoft Excel software as indicated, with significance defined as p<0.05.
as §5

[4] = 1 μM butyrolactone, 30 min before DHPG 2 min
[5] = butyrolactone 5 μM and 10 μM, 30 min before DHPG 2 min
[6] = slices treated with drug alone: DHPG 100 μM, ionomycin 2 μM

O=C1CCCO1 [butyrolactone]
effect on basal or DHPG-stimulated DARPP-32 phosphorylation at Ser137 [1, 4]: little effect
effect on basal and DHPG-stimulated phosphorylation of Ser137 [1, 5]: unaffected
effect on basal or DHPG-stimulated DARPP-32 phosphorylation at Thr75 [2, 4]: little effect
effect on basal and DHPG-stimulated phosphorylation of Thr75 [2, 5]: decreased in a dose-dependent manner
effect on basal Ca2+ currents [3]: significant reduction; also recorded: reduced
effect on the enhancement of Ca2+ currents by DHPG ([3]; DHPG 100 μM): eliminated

17β-estradiol
IC50 (ER): 5.6 nM

COc1ccc2c(c1)CC[C@@H]1[C@@H]2CC[C@]2(C)[C@@H](NCCCCCCN3C(=O)C=CC3=O)CC[C@@H]12 [U73122]
effect on basal phosphorylation of Ser137 [1]: did not change
effect of pretreatment on the DHPG effect on Ser137 phosphorylation [1]: abolished
effect on basal phosphorylation of Thr75 [2]: did not change
effect of pretreatment on the DHPG effect on Thr75 phosphorylation [2]: abolished
effect of pre-incubation on the ability of DHPG to increase CK1ε activity (HA-tagged CK1ε): abolished
effect of pretreatment on the effect of DHPG on Cdk5 kinase activity (Cdk5): abolished

Nc1nc(NCCc2ccc(O)cc2)nc2nc(-c3ccco3)nn12 [ZM241385]
effect of pretreatment on the DHPG effect on Ser137 phosphorylation [1]: did not affect
effect of pretreatment on the DHPG effect on Thr75 phosphorylation [2]: did not affect

CC(=O)OCOC(=O)CN(CC(=O)OCOC(C)=O)c1ccccc1OCCOc1ccccc1N(CC(=O)OCOC(C)=O)CC(=O)OCOC(C)=O [BAPTA/AM]
effect on basal phosphorylation of Ser137 [1]: did not change
effect of pretreatment on the DHPG effect on Ser137 phosphorylation [1]: abolished
effect on basal phosphorylation of Thr75 [2]: did not change
effect of pretreatment on the DHPG effect on Thr75 phosphorylation [2]: abolished
effect of pre-incubation on the ability of DHPG to increase CK1ε activity (HA-tagged CK1ε): abolished
effect of pretreatment on the effect of DHPG on Cdk5 kinase activity (Cdk5): abolished

4-OH-tamoxifen
IC50 (ER): 26 nM

C[C@H](CCC(=O)O)C[C@H](C)C[C@H](C)C(=O)/C=C(\O)[C@H](C)C[C@H](C)C/C=C/[C@@H](C)[C@@H](O)[C@@H](C)[C@@H](O)C[C@@H]1CC[C@@](C)([C@H]2CC[C@@](C)([C@@H](C)O)O2)O1 [ionomycin]
effect on phosphorylation of Ser137 in DARPP-32 [1, 6]: increased phosphorylation
effect on phosphorylation of Thr75 in DARPP-32 [2, 6]: increased phosphorylation
increase in Cdk5 kinase activity (Cdk5; ionomycin 2 μM for 2 min): 2 fold

N[C@@H](CP(=O)(O)O)C(=O)O [L-AP3]
effect of pretreatment on the DHPG effect on Ser137 phosphorylation [1]: blocked
effect of pretreatment on the DHPG effect on Thr75 phosphorylation [2]: blocked
effect of pre-incubation on the ability of DHPG to increase CK1ε activity (HA-tagged CK1ε): blocked
